Results published in ChEMBL document CHEMBL1201862, “PubChem BioAssay data set” (2004).
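Protocol summary: plate cells (96-well), add compound at 5 concentrations, incubate 48 h, interpolate endpoints linearly. GI50 is the concentration that inhibits growth by half.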 The source made the active and inactive calls. Rule as the data show it: active = GI50 up to about 1.1 µM and inactive = higher.

Key:
Assay in all cases: NCI-60 cell line screen, 48 h
NCI-H226 = tested on: NCI-H226
OVCAR-4 = tested on: OVCAR-4
Hs-578T = tested on: Hs-578T
SK-MEL-5 = tested on: SK-MEL-5
UO-31 = tested on: UO-31
TK-10 = tested on: TK-10
SF-268 = tested on: SF-268
Malme-3M = tested on: Malme-3M
SF-539 = tested on: SF-539
SK-MEL-28 = tested on: SK-MEL-28
786-0 = tested on: 786-0
MDA-MB-435 = tested on: MDA-MB-435
NCI-H460 = tested on: NCI-H460
SW-620 = tested on: SW-620
SN12C = tested on: SN12C
M14 = tested on: M14
HOP-92 = tested on: HOP-92
A549 = tested on: A549
MOLT-4 = tested on: MOLT-4

Row | Compound | GI50 (NCI-H226) | GI50 (OVCAR-4) | GI50 (Hs-578T) | GI50 (SK-MEL-5) | GI50 (UO-31) | GI50 (TK-10) | GI50 (SF-268) | GI50 (Malme-3M) | GI50 (SF-539) | GI50 (SK-MEL-28) | GI50 (786-0) | GI50 (MDA-MB-435) | GI50 (NCI-H460) | GI50 (SW-620) | GI50 (SN12C) | GI50 (M14) | GI50 (HOP-92) | GI50 (A549) | GI50 (MOLT-4)
1 | CSc1c(C#N)c(N)n2c1C(=O)N(c1ccccc1)C2=S | > 100 µM (inactive) | 26.5 µM (inactive) | 28 µM (inactive) | > 100 µM (inactive) | > 100 µM (inactive) | > 100 µM (inactive) | 88.1 µM (inactive) | 90.4 µM (inactive) | 92.7 µM (inactive) | > 100 µM (inactive) | 32.6 µM (inactive) | > 100 µM (inactive) | > 100 µM (inactive) | 85.1 µM (inactive) | 74 µM (inactive) | > 100 µM (inactive) | 31.3 µM (inactive) | > 100 µM (inactive) | > 100 µM (inactive)
2 | CC(C)(C)c1cc(/C=C(\C#N)C(=O)NCCO)cc(C(C)(C)C)c1O | 19.5 µM (inactive) | 17.8 µM (inactive) | 37.8 µM (inactive) | 14.9 µM (inactive) | 19.9 µM (inactive) | 22.3 µM (inactive) | 31.9 µM (inactive) | 17.3 µM (inactive) | 18.3 µM (inactive) | 21.6 µM (inactive) | 21.8 µM (inactive) | 21.1 µM (inactive) | 20.7 µM (inactive) | 28.8 µM (inactive) | 19 µM (inactive) | 17.1 µM (inactive) | 45.7 µM (inactive) | 27.4 µM (inactive) | 18.7 µM (inactive)
3 | O=C(CC(Cl)(Cl)C(Cl)(Cl)Cl)c1ccccc1 | 3.63 µM (inactive) | 2.22 µM (inactive) | 3.76 µM (inactive) | 12 µM (inactive) | 3.94 µM (inactive) | 6.1 µM (inactive) | 11.7 µM (inactive) | 2.71 µM (inactive) | 16.2 µM (inactive) | 2.2 µM (inactive) | 3.01 µM (inactive) | 2.23 µM (inactive) | 12 µM (inactive) | 3.51 µM (inactive) | 0.59 µM (active) | 2.62 µM (inactive) | 19.9 µM (inactive) | 17.8 µM (inactive) | 3.17 µM (inactive)
4 | COc1cc(/C=N/N=C2NCCCN2)ccc1O | > 100 µM (inactive) | > 100 µM (inactive) | > 100 µM (inactive) | > 100 µM (inactive) | > 100 µM (inactive) | > 100 µM (inactive) | > 100 µM (inactive) | 95.7 µM (inactive) | > 100 µM (inactive) | > 100 µM (inactive) | > 100 µM (inactive) | > 100 µM (inactive) | 82.8 µM (inactive) | > 100 µM (inactive) | > 100 µM (inactive) | > 100 µM (inactive) | > 100 µM (inactive) | > 100 µM (inactive) | > 100 µM (inactive)
5 | [C-]#[N+]C(=C\c1ccc(O)cc1)/C(=C/c1ccc(O)cc1)[N+]#[C-] [XANTOCILLIN] | 2.37 µM (inactive) | 3.19 µM (inactive) | 0.718 µM (active) | 2.04 µM (inactive) | 1.48 µM (inactive) | 3.01 µM (inactive) | 2.96 µM (inactive) | 0.871 µM (active) | 2.97 µM (inactive) | 2.61 µM (inactive) | 6.4 µM (inactive) | 1.28 µM (inactive) | 2.42 µM (inactive) | 1.14 µM (inactive) | 2.06 µM (inactive) | 2.28 µM (inactive) | 2.9 µM (inactive) | 5.94 µM (inactive) | 1.57 µM (inactive)
6 | O=S(=O)(Cc1cnc(O)nc1O)Cc1cnc(O)nc1O | > 100 µM (inactive) | > 100 µM (inactive) | > 100 µM (inactive) | > 100 µM (inactive) | > 100 µM (inactive) | > 100 µM (inactive) | > 100 µM (inactive) | > 100 µM (inactive) | > 100 µM (inactive) | > 100 µM (inactive) | > 100 µM (inactive) | > 100 µM (inactive) | > 100 µM (inactive) | > 100 µM (inactive) | > 100 µM (inactive) | > 100 µM (inactive) | > 100 µM (inactive) | > 100 µM (inactive) | > 100 µM (inactive)
7 | CC(CC(=O)O)C(C(=O)O)C(=O)O (stereo not given) | > 100 µM (inactive) | > 100 µM (inactive) | > 100 µM (inactive) | > 100 µM (inactive) | > 100 µM (inactive) | > 100 µM (inactive) | > 100 µM (inactive) | > 100 µM (inactive) | > 100 µM (inactive) | > 100 µM (inactive) | > 100 µM (inactive) | > 100 µM (inactive) | > 100 µM (inactive) | > 100 µM (inactive) | > 100 µM (inactive) | > 100 µM (inactive) | > 100 µM (inactive) | > 100 µM (inactive) | > 100 µM (inactive)
8 | CC(C)(C)OC(=O)N(O)[C@@H]1C=C[C@H](n2cnc3c(N)ncnc32)C1 | 26.5 µM (inactive) | > 100 µM (inactive) | 92.3 µM (inactive) | 70.5 µM (inactive) | > 100 µM (inactive) | > 100 µM (inactive) | > 100 µM (inactive) | > 100 µM (inactive) | > 100 µM (inactive) | > 100 µM (inactive) | > 100 µM (inactive) | > 100 µM (inactive) | > 100 µM (inactive) | > 100 µM (inactive) | > 100 µM (inactive) | > 100 µM (inactive) | > 100 µM (inactive) | > 100 µM (inactive) | > 100 µM (inactive)
9 | C[C@@]12C[C@@H](c3ccccc3O1)N1Cc3ccccc3CSC1=N2 | > 100 µM (inactive) | 66.1 µM (inactive) | > 100 µM (inactive) | 44.4 µM (inactive) | > 100 µM (inactive) | 57.7 µM (inactive) | > 100 µM (inactive) | 79.8 µM (inactive) | 51.5 µM (inactive) | > 100 µM (inactive) | 38.8 µM (inactive) | > 100 µM (inactive) | 42.8 µM (inactive) | > 100 µM (inactive) | > 100 µM (inactive) | 90.4 µM (inactive) | > 100 µM (inactive) |  | 56.6 µM (inactive)
10 | CC(=O)CC(=O)Nc1ccc2ccccc2c1 | > 100 µM (inactive) | 29.4 µM (inactive) | > 100 µM (inactive) | 72.4 µM (inactive) |  | 65.8 µM (inactive) | > 100 µM (inactive) | > 100 µM (inactive) | 53.6 µM (inactive) | > 100 µM (inactive) | > 100 µM (inactive) | 67.9 µM (inactive) | > 100 µM (inactive) | > 100 µM (inactive) | > 100 µM (inactive) | > 100 µM (inactive) | > 100 µM (inactive) | > 100 µM (inactive) | 36.7 µM (inactive)
11 | CCO/N=C(/CC)c1ccc(Br)s1 | > 100 µM (inactive) | > 100 µM (inactive) | > 100 µM (inactive) | > 100 µM (inactive) | > 100 µM (inactive) | > 100 µM (inactive) | > 100 µM (inactive) | > 100 µM (inactive) | > 100 µM (inactive) | > 100 µM (inactive) | > 100 µM (inactive) | > 100 µM (inactive) | > 100 µM (inactive) | > 100 µM (inactive) | > 100 µM (inactive) | > 100 µM (inactive) | > 100 µM (inactive) | > 100 µM (inactive) | 53.5 µM (inactive)
12 | C=C1CN(C(=O)c2cc3cc(OC)c(OC)c(OC)c3[nH]2)c2cc([N+](=O)[O-])ccc21 | > 100 µM (inactive) | > 100 µM (inactive) | 4.47 µM (inactive) | > 100 µM (inactive) | > 100 µM (inactive) | 26.5 µM (inactive) | 15.5 µM (inactive) | > 100 µM (inactive) | > 100 µM (inactive) | > 100 µM (inactive) | 30.5 µM (inactive) | > 100 µM (inactive) | > 100 µM (inactive) | > 100 µM (inactive) | > 100 µM (inactive) | > 100 µM (inactive) | 33.8 µM (inactive) | > 100 µM (inactive) | 69.3 µM (inactive)
13 | CC1(C)N/C(=C\[N+](=O)[O-])C(C)(C)N1O | > 10 µM (inactive) | > 10 µM (inactive) | > 10 µM (inactive) | > 10 µM (inactive) |  | > 10 µM (inactive) | > 10 µM (inactive) | > 10 µM (inactive) | > 10 µM (inactive) | > 10 µM (inactive) | > 10 µM (inactive) | > 10 µM (inactive) | > 10 µM (inactive) | > 10 µM (inactive) | > 10 µM (inactive) | > 10 µM (inactive) | > 10 µM (inactive) | > 10 µM (inactive) | > 10 µM (inactive)
14 | CC(=O)c1c(N=[N+]=[N-])c2cccc3c2n(c1=O)CCC3 | 22.9 µM (inactive) | 21 µM (inactive) | 22.9 µM (inactive) | 14.7 µM (inactive) | 30.2 µM (inactive) | 25.4 µM (inactive) | 18.6 µM (inactive) | 13.2 µM (inactive) | 27.9 µM (inactive) |  | 14.7 µM (inactive) | 19.1 µM (inactive) | 14.4 µM (inactive) | 16 µM (inactive) | 22.1 µM (inactive) | 13.6 µM (inactive) | 31.8 µM (inactive) | 29 µM (inactive) | 23.4 µM (inactive)
15 | O=C(CCCN1CCc2[nH]c3cc(F)ccc3c2C1)c1ccc(F)cc1 | 18.7 µM (inactive) | 13.8 µM (inactive) | 10.5 µM (inactive) | 17.1 µM (inactive) |  | 12.4 µM (inactive) | 13.1 µM (inactive) | 12.6 µM (inactive) | 16.7 µM (inactive) | 20.3 µM (inactive) | 13.5 µM (inactive) | 12.9 µM (inactive) | 10.9 µM (inactive) | > 100 µM (inactive) | 14.3 µM (inactive) | 9.82 µM (inactive) | 2.26 µM (inactive) | 15.8 µM (inactive) | 13 µM (inactive)
